# Laboratory results: patent publication US12281114B2, “NK3 modulators and uses thereof” (Kallyope, Inc., priority 2023, dated 2025)
# Target: T1, human NK3 (Homo sapiens, UniProt P29371)
# T1 sequence (P29371 1-465): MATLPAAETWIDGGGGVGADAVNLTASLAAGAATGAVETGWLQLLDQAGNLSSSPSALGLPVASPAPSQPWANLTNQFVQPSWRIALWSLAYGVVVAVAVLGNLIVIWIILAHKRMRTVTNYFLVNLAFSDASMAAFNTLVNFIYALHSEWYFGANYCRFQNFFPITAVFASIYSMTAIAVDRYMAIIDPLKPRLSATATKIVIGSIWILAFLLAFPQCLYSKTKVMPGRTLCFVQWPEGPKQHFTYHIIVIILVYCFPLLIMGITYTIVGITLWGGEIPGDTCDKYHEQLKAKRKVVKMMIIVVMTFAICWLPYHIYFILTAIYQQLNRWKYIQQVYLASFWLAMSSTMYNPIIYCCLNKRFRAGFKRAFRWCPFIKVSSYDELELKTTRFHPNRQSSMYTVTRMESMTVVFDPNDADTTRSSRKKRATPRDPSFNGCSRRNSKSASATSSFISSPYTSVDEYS
# Assay: FLIPR calcium assay in antagonist mode (NKB EC70 challenge)
# Format: cell-based
# Conditions: stable cell line expressing human recombinant NK3; antagonist mode vs EC70 of NKB agonist
# Description: Stable Cell Lines: A human recombinant NK3 Tachykinin Receptor stable cell line was purchased from GenScript (Genscript, Cat. #M00201; GenBank Accession Number NM 001059). The cell line was cultured according to manufacturer instructions, using 100 μg/mL Hygromycin B (Invitrogen, Cat. #D2650) for selective pressure. Cells were then collected using 0.05% Trypsin-EDTA (GIBCO, Cat. #25300) and frozen in a freezing media containing 90% FBS (Gibco, Cat. #10099-141) and 10% DMSO (Sigma, Cat. #D2650) at a density of 30×10^6 cells/mL. This bank of assay-ready frozen cells was later used in FLIPR assays to evaluate the potency and efficacy of NK3 antagonist test compounds.
# FLIPR Calcium Assay: The FLIPR assay, used to measure changes in intracellular calcium levels, was performed in a 384-well plate format using the FLIPR Calcium 6 assay kit (Molecular Devices, Cat. #R8190). Assay-ready frozen cells expressing human NK3 (Genscript, Cat. #M00201) were thawed, washed, trypsinized, counted using a ViCell, and plated in cell growth media without Hygromycin at a density of […] (40 μL/well).
# Calculation of NKB EC70: An EC70 concentration of NKB needed to be determined for competition against test antagonists prior to the compound screen. NKB agonist (Phoenix Pharmaceuticals, Cat. #046-26) was diluted in DMSO at 1800 nM (6-fold the final concentration) and serially diluted to generate a 13-point dose response curve (3-fold serial dilution) using an ECHO. 20 μL of 1× stimulation buffer was added using the BRAVO. 10 μL of DMSO was added while on the FLIPR (described as the first addition), then the RFU signal was measured for 10 minutes. The NKB titration was added to the plate, then the RFU signal was measured for 10 minutes (described as the second addition) on the FLIPR. The EC70 concentration was determined by using a four-parameter fit on GraphPad Prism prior to performing the compound screen.
# FLIPR Screen in Antagonist Mode: Test compounds were prepared at 60 μM (6-fold the final concentration) and spotted in 370 nL using the Janus and ECHO. 20 μL of assay buffer was added using the BRAVO. Calcium-sensitive dye was reconstituted in loading buffer (Molecular Devices, Cat. #R8190). Media was removed from the cell plate using a Bluecat Cell Washer, and 40 μL of dye was added to the cell plate using the Apricot. The plate was incubated for 2 hours at 37° C., 5% CO2, then transferred to the FLIPR instrument. 10 μL of compound was added on the FLIPR (described as the first addition), then the RFU signal was measured for 10 minutes. EC70 of NKB agonist was added to the entire plate (described as the second addition), and the RFU signal was measured for 10 minutes on the FLIPR. RFU (relative fluorescence units) signals for first baseline, first peak, second baseline, and second peak were measured using the FLIPR. RFU signal (second peak minus second baseline) for positive (Max, at 10 μM antagonist) and negative (Min, at 0 μM antagonist) controls were used to normalize data and generate values for % Activity. IC50 and efficacy values were determined using a standard curve fitting equation on Dotmatics.
row,IC50 [nM],SMILES
1,7.72,Cc1nn(C)cc1-c1ccncc1-c1nc2cc(C(=O)N[C@H]3C[C@](C)(O)C3)ccn2c1Cl [Compound 825]
2,1.4,C[C@]1(O)C[C@H](NC(=O)c2ccn3c(Cl)c(-c4ccccc4-c4cn(C5CC5)nc4Cl)nc3c2)C1 [Compound 826]
3,0.3,Cn1cc(-c2cccc(F)c2-c2nc3cc(C(=O)N[C@H]4C[C@](C)(O)C4)ccn3c2Cl)c(F)n1 [Compound 828]
4,8.27,CC1(O)CCN(C(=O)c2ccn3c(Cl)c(-c4c(F)cc(F)cc4-c4c[nH]nc4F)nc3c2)CC1 [Compound 829]
5,6.63,O=C(NC1CS(=O)(=O)C1)c1ccn2c(Cl)c(-c3c(F)cc(F)cc3-c3c[nH]nc3F)nc2c1 [Compound 830]
6,3.66,Cc1c(-c2c(F)cc(F)cc2-c2cn(C)nc2F)nc2cc(C(=O)N[C@H]3C[C@@](C)(O)C3)ccn12 [Compound 831]
7,6.91,Cn1ncc(-c2cc(F)cc(F)c2-c2nc3cc(C(=O)N[C@H]4C[C@@](C)(O)C4)ccn3c2Cl)c1F [Compound 832]
8,2.68,CO[C@H]1C[C@@H](NC(=O)c2ccn3c(F)c(-c4c(F)cc(F)cc4-c4c[nH]nc4Cl)nc3c2)C1 [Compound 833]
9,6.01,O=C(NCC1(O)COC1)c1ccn2c(F)c(-c3c(F)cc(F)cc3-c3c[nH]nc3Cl)nc2c1 [Compound 834]
10,6.24,Cn1cc(-c2cccc(F)c2-c2nc3cc(C(=O)N[C@H]4C[C@@](C)(O)C4)ccn3c2Cl)cn1 [Compound 835]
11,1.1,CC(C)(O)C12CC(NC(=O)c3ccn4c(F)c(-c5c(F)cccc5-c5c[nH]nc5F)nc4c3)(C1)C2 [Compound 836]
12,1.01,Cn1cc(-c2cccc(F)c2-c2nc3cc(C(=O)N[C@@H]4CC[C@@H](CO)OC4)ccn3c2Cl)c(F)n1 [Compound 837]
13,5.17,Cn1cc(-c2cccc(F)c2-c2nc3cc(C(=O)NC45COC(CO)(C4)C5)ccn3c2Cl)c(F)n1 [Compound 838]
14,0.46,Cn1cc(-c2cccc(F)c2-c2nc3cc(C(=O)NCC45CC(CO)(CO4)C5)ccn3c2Cl)c(F)n1 [Compound 839]
15,0.58,Cn1cc(-c2cccc(F)c2-c2nc3cc(C(=O)NC4CC5(COC5)C4)ccn3c2Cl)c(F)n1 [Compound 840]
16,1.25,Cn1cc(-c2cccc(F)c2-c2nc3cc(C(=O)N[C@H]4C[C@@](O)(CO)C4)ccn3c2Cl)c(F)n1 [Compound 841]
17,1.38,Cn1cc(-c2cccc(F)c2-c2nc3cc(C(=O)N4CC5(C4)CC(C)(O)C5)ccn3c2Cl)c(F)n1 [Compound 842]
18,1.08,Cn1cc(-c2cccc(F)c2-c2nc3cc(C(=O)N[C@H]4C[C@](O)(CO)C4)ccn3c2Cl)c(F)n1 [Compound 843]
19,0.42,Cn1cc(-c2cccc(F)c2-c2nc3cc(C(=O)NC[C@H]4C[C@@](C)(O)C4)ccn3c2Cl)c(F)n1 [Compound 844]
20,3.57,C[C@H]1C[C@H](NC(=O)c2ccn3c(Cl)c(-c4c(F)cc(F)cc4-c4c[nH]nc4F)nc3c2)C1 [Compound 847]

row,IC50 [nM],SMILES
1,2,COC12CC(NC(=O)c3ccn4c(Cl)c(-c5c(F)cc(F)cc5-c5c[nH]nc5F)nc4c3)(C1)C2 [Compound 848]
2,0.94,Cn1cc(-c2ccccc2-c2nc3cc(C(=O)NC4CC5(C4)CS(=O)(=O)C5)ccn3c2Cl)c(F)n1 [Compound 849]
3,0.31,Cn1cc(-c2cccc(F)c2-c2nc3cc(C(=O)NCC45CC(CO)(CCO4)C5)ccn3c2Cl)c(F)n1 [Compound 850]
4,1.93,O=C(NC1CC(CO)(CO)C1)c1ccn2c(Cl)c(-c3c(F)cc(F)cc3-c3cnn(C4CC4)c3F)nc2c1 [Compound 851]
5,0.97,O=C(N[C@@H]1C[C@@H](O)[C@@H](O)C1)c1ccn2c(Cl)c(-c3c(F)cccc3-c3cn(C4CC4)nc3F)nc2c1 [Compound 852]
6,0.97,Cn1cc(-c2cccc(F)c2-c2nc3cc(C(=O)NC4CC5(CC(O)C5)C4)ccn3c2Cl)c(F)n1 (stereo not shown) [Compound 853]
7,1.42,Cn1cc(-c2cccc(F)c2-c2nc3cc(C(=O)NC45CCC(CO)(C4)OC5)ccn3c2Cl)c(F)n1 (stereo not shown) [Compound 854]
8,1.71,Cn1cc(-c2ccccc2-c2nc3cc(C(=O)NC45CCC(O)(CC4)C5)ccn3c2Cl)c(F)n1 [Compound 855]
9,11.8,CC12CC(NC(=O)c3ccn4c(Cl)c(-c5c(F)cccc5-c5cn[nH]c5)nc4c3)(C1)C2 [Compound 856]
10,0.84,Cn1cc(-c2ccc(F)c(F)c2-c2nc3cc(C(=O)N[C@H]4C[C@@](C)(O)C4)ccn3c2Cl)c(F)n1 [Compound 916]
11,0.67,Cn1cc(-c2cccc(F)c2-c2nc3cc(C(=O)N[C@H]4CC[C@](C)(O)CC4)ccn3c2Cl)c(F)n1 [Compound 917]
12,3.48,"Cn1cc(-c2cccc(F)c2-c2nc3cc(C(=O)N[C@H]4CC[C@](C)(O)CC4)ccn3c2Cl)cn1 [Compound 918, 3-chloro-2-(2-fluoro-6-(1-methyl-1H-pyrazol-4-yl)phenyl)-N-((1r,4r)-4-hydroxy-4-methylcyclohexyl)imidazo[1,2-a]pyridine-7-carboxamide]"
13,1.27,Cn1cc(-c2cccc(F)c2-c2nc3cc(C(=O)N[C@H]4CC[C@@](C)(O)CC4)ccn3c2Cl)c(F)n1 [Compound 919]
14,0.71,"Cn1cc(-c2cccc(F)c2-c2nc3cc(C(=O)N[C@H]4CC5(C[C@@H](O)C5)C4)ccn3c2Cl)c(F)n1 (stereo partly drawn) [Compound 921, trans 3-chloro-2-(2-fluoro-6-(3-fluoro-1-methyl-1H-pyrazol-4-yl)phenyl)-N-(6-hydroxyspiro[3.3]heptan-2-yl)imidazo[1,2-a]pyridine-7-carboxamide]"
15,2.83,"Cn1cc(-c2cc(F)cc(F)c2-c2nc3cc(C(=O)N[C@H]4C[C@](O)(CO)C4)ccn3c2Cl)c(F)n1 [Compound 922, 3-chloro-2-(2,4-difluoro-6-(3-fluoro-1-methyl-1H-pyrazol-4-yl)phenyl)-N-((1s,3s)-3-hydroxy-3-(hydroxymethyl)cyclobutyl)imidazo[1,2-a]pyridine-7-carboxamide]"
16,2.36,"Cn1cc(-c2cc(F)cc(F)c2-c2nc3cc(C(=O)N[C@H]4C[C@@](O)(CO)C4)ccn3c2Cl)c(F)n1 [Compound 923, 3-chloro-2-(2,4-difluoro-6-(3-fluoro-1-methyl-1H-pyrazol-4-yl)phenyl)-N-((1r,3r)-3-hydroxy-3-(hydroxymethyl)cyclobutyl)imidazo[1,2-a]pyridine-7-carboxamide]"
17,0.97,"Cn1cc(-c2cccc(F)c2-c2nc3cc(C(=O)N[C@H]4CC[C@H](CO)OC4)ccn3c2Cl)c(F)n1 [Compound 924, 3-chloro-2-(2-fluoro-6-(3-fluoro-1-methyl-1H-pyrazol-4-yl)phenyl)-N-((3S,6R)-6-(hydroxymethyl)tetrahydro-2H-pyran-3-yl)imidazo[1,2-a]pyridine-7-carboxamide]"
18,1.85,"Cn1cc(-c2cccc(F)c2-c2nc3cc(C(=O)N[C@H]4C[C@](C)(O)C4)ccn3c2C#N)c(F)n1 [Compound 925, 3-cyano-2-(2-fluoro-6-(3-fluoro-1-methyl-1H-pyrazol-4-yl)phenyl)-N-((1r,3r)-3-hydroxy-3-methylcyclobutyl)imidazo[1,2-a]pyridine-7-carboxamide]"
19,2.21,Cn1cc(-c2cccc(F)c2-c2nc3cc(C(=O)N[C@H]4CC[C@@H](CO)OC4)ccn3c2C#N)c(F)n1 [Compound 926]
20,2.66,Cn1cc(-c2ccc(F)c(F)c2-c2nc3cc(C(=O)N[C@H]4C[C@](C)(O)C4)ccn3c2Cl)c(F)n1 [Compound 927]
